In brackets after ≈: the same amount, converted by molar mass.
Conditions: buffer; pH 7.4; 200.0 µM

Cc1nc(-c2noc(-c3ccc(Cl)cc3)n2)c(C(F)(F)F)o1 and O=C(Nc1ccc(Cl)cc1)c1ccc(Br)cc1F cannot be ordered by solubility kinetic: under 0.2 µg/mL for the first, under 0.7 µg/mL for the second.

First: O=C(COC(=O)c1cnccn1)c1ccc(Cl)c([N+](=O)[O-])c1
Second: O=C(COC(=O)c1cccs1)Nc1cccc(Cl)c1
The solubility kinetic of the first is higher: over 48.3 µg/mL for the first, 7.6 µg/mL (≈ 25.7 µM) for the second.

First: CCCC(=O)N1CCN(Cc2nc3cc([N+](=O)[O-])ccc3n2C)CC1
Second: COCCNC(=S)N1CCN(c2nc3ccccc3s2)CC1
The solubility kinetic of the first is higher: over 51.8 µg/mL for the first, 35.3 µg/mL (≈ 105 µM) for the second.

Compared with CCN(CC)Cc1ccc(OC)c(Cl)c1.Cl, CCN(CC)C(=S)Oc1ccc(Cl)cc1Cl is lower in solubility kinetic: over 39.6 µg/mL for the first, 0.9 µg/mL (≈ 3.24 µM) for the second.

Cc1cccc2c(CCN)c[nH]c12.Cl and COc1cccc(CNCCc2c[nH]c3ccccc23)c1OC.Cl cannot be ordered by solubility kinetic: over 31.6 µg/mL for the first, over 52 µg/mL for the second.

First: C=CCN=C1CCCc2c1[nH]c1ccc(C)cc21
Second: Cc1cccc(CC(=O)NC2CCCCCC2)c1
The solubility kinetic of the first is 3-fold lower: 10.3 µg/mL (≈ 43.2 µM) for the first, 30.5 µg/mL (≈ 124 µM) for the second.

Compared with COc1ccc(NC(=O)CC2Oc3ccccc3NC2=O)c(OC)c1 (stereo unspecified), COc1ccccc1N1CC(C)(C)C(=O)N(C(=O)c2ccc(C)cc2)C1=S is 1.9-fold lower in solubility kinetic: 4 µg/mL (≈ 11.7 µM) for the first, 2.1 µg/mL (≈ 5.49 µM) for the second.

CC1=C(C)CC(C(=O)Nc2nc(C)cs2)C(C(=O)O)C1 (stereo unspecified) and Cc1cccc(C)c1NC(=O)CCCCCC1NC(=O)NC1C (stereo unspecified) cannot be ordered by solubility kinetic: over 44.2 µg/mL for the first, over 47.6 µg/mL for the second.

Going from CC(Sc1nc2ccccc2[nH]1)C(=O)Nc1ccccc1F (stereo unspecified) to CSc1cccc(NC(=O)C(=O)NCc2ccccc2)c1, the solubility kinetic falls from 43.9 µg/mL (≈ 139 µM) to under 0.3 µg/mL.

Going from Cc1ccc(NC2CC(=O)N(c3cccc([N+](=O)[O-])c3)C2=O)cc1 (stereo unspecified) to Cn1c(=O)n(C)c2cc(NC(=O)c3ccc(F)cc3)ccc21, the solubility kinetic falls from 39 µg/mL (≈ 120 µM) to 15.5 µg/mL (≈ 51.8 µM) (2.5-fold).

First: CCN=C1S/C(=C\c2cc(Cl)c(OC)c(OC)c2)C(=O)N1CC
Second: Cc1cc(Cl)cc(Cl)c1OCCN1CCCC1
The solubility kinetic of the first is 38-fold lower: 0.8 µg/mL (≈ 2.25 µM) for the first, 30.2 µg/mL (≈ 110 µM) for the second.

Compared with Cl.c1ccc(-c2ccc(OCCN3CCOCC3)cc2)cc1, CC(CCN1CCN(c2ccc(F)cc2)CC1)c1ccccc1 (stereo unspecified) is 1.5-fold lower in solubility kinetic: 29.8 µg/mL for the first, 19.6 µg/mL (≈ 62.7 µM) for the second.

Going from Clc1ccccc1C1CC(c2ccccc2)=Nc2ccccc2N1 (stereo unspecified) to Cc1sc(N)nc1-c1ccc(Oc2ccccc2)cc1, the solubility kinetic rises from 1.2 µg/mL (≈ 3.61 µM) to 2.1 µg/mL (≈ 7.44 µM) (1.8-fold).

O=C(CN1CCN(c2ccccc2)CC1)Nc1ccc(F)cc1 and CCN1CCN(c2ccc(NC(=O)c3cccc(S(=O)(=O)N4CCCC4)c3)cc2)CC1 cannot be ordered by solubility kinetic: over 47 µg/mL for the first, 63.2 µg/mL (≈ 143 µM) for the second.

O=C(COC(=O)CC1CC2CCC1C2)Nc1ccccc1[N+](=O)[O-] (stereo unspecified) and COc1ccccc1NC(=O)COC(=O)c1ccc(S(=O)(=O)N2CCCCCC2)cc1 are within 1.5-fold of each other in solubility kinetic: 2.9 µg/mL (≈ 8.73 µM) for the first, 2.6 µg/mL (≈ 5.82 µM) for the second.

First: CCC(C)(C)NC(=O)C1CCCN1C(=O)NC1CCCCC1 (stereo unspecified)
Second: COc1ccccc1NCC(=O)NC(=O)NC1CCCCC1
The solubility kinetic of the first is higher: over 46.4 µg/mL for the first, 5.9 µg/mL (≈ 19.3 µM) for the second.

Going from CN(C)c1ccc(NC(=O)C(=O)NCCOc2ccccc2)cc1 to CC(C)=C(NC(=O)c1ccccc1)C(=O)Nc1cccc(C)c1, the solubility kinetic rises from 0.7 µg/mL (≈ 2.14 µM) to 2.8 µg/mL (≈ 9.08 µM) (4-fold).

Going from O=C(COC(=O)c1cccc(Cl)c1Cl)NC1CCCC1 to Cc1ccc(S(=O)(=O)NC2CCCC2)cc1C(N)=O, the solubility kinetic rises from 12.8 µg/mL (≈ 40.5 µM) to over 42.4 µg/mL.

Going from CC(=O)Nc1ccc(N2CCN(c3ccc(C(F)(F)F)cn3)CC2)nc1 to O=C(Nc1ccccc1N1CCN(C(=O)c2ccccc2)CC1)c1ccco1, the solubility kinetic rises from 0.8 µg/mL (≈ 2.19 µM) to over 56.3 µg/mL.

C=CCn1cccc(C(=O)Nc2ccc(F)cc2)c1=O and C=CCn1c(O)c(C(CC)=Nc2ccc(NC(C)=O)cc2)c(=O)[nH]c1=O cannot be ordered by solubility kinetic: over 40.8 µg/mL for the first, over 53.5 µg/mL for the second.

Going from O=C(NCCc1ccccc1)c1cccc(N2CCCC2=O)c1 to CCn1c(CNC(=O)c2ccc(F)cc2)cc2ccccc21, the solubility kinetic falls from over 46.3 µg/mL to 1.5 µg/mL (≈ 5.06 µM).

CC1(C)CC(NC(=O)C(=O)NCCc2ccccc2)CC(C)(C)N1 and O=C(NCCN1CCNCC1)c1ccccc1O cannot be ordered by solubility kinetic: over 49.7 µg/mL for the first, over 37.4 µg/mL for the second.

CSS(=O)(=O)c1cccc2cccnc12 and O=S(=O)(NCc1ccc2c(c1)OCO2)c1ccccc1F cannot be ordered by solubility kinetic: over 35.9 µg/mL for the first, 37.1 µg/mL (≈ 120 µM) for the second.

Going from CCCCCCCn1c(NC(=O)CC)nc2ccccc21 to CCn1c2ccccc2c2cc(C#N)c(N)nc21, the solubility kinetic falls from 13.8 µg/mL (≈ 48 µM) to 0.7 µg/mL (≈ 2.96 µM) (20-fold).

Compared with CCN(C(=O)c1ccc2c(c1)OCO2)C12CC3CC(CC(C3)C1)C2, O=C(c1cccs1)N1CCN(C23CC4CC(CC(C4)C2)C3)CC1 is higher in solubility kinetic: 4 µg/mL (≈ 12.2 µM) for the first, over 49.6 µg/mL for the second.

Cn1nc(C(C)(C)C)cc1C(=O)O and CC(Sc1nncn1C)C(=O)Nc1ccc(S(N)(=O)=O)cc1 (stereo unspecified) cannot be ordered by solubility kinetic: over 27.3 µg/mL for the first, over 51.2 µg/mL for the second.

Compared with O=S(=O)(Nc1cccc(S(=O)(=O)N2CCCC2)c1)c1ccc(Cl)cc1, O=C(NC1CCCCC1)c1cccc(S(=O)(=O)N2CCCCC2)c1 is lower in solubility kinetic: over 60.1 µg/mL for the first, 5.6 µg/mL (≈ 16 µM) for the second.

Compared with Cc1ccc(NC(=O)COC(=O)c2ccco2)cc1C, CC(C)[C@H](NS(=O)(=O)c1ccccc1F)C(=O)OCC(=O)Nc1cccc(S(N)(=O)=O)c1 is higher in solubility kinetic: 23.3 µg/mL (≈ 85.3 µM) for the first, over 73.1 µg/mL for the second.

Going from CN(Cc1cccnc1)C(=O)CCCc1c[nH]c2ccccc12 to O=C(N/C(=C/c1cccnc1)C(=O)N1CCOCC1)c1ccccc1F, the solubility kinetic rises from 44.5 µg/mL (≈ 145 µM) to over 53.3 µg/mL.

Going from CCc1c(O)nc(SC2CC(=O)N(c3ccc(F)c(Cl)c3)C2=O)[nH]c1=O (stereo unspecified) to Cc1noc(C)c1C(=O)OC(C)C(=O)N1CCc2ccccc21 (stereo unspecified), the solubility kinetic falls from 55.7 µg/mL (≈ 140 µM) to 6 µg/mL (≈ 19.1 µM) (9.3-fold).

Molecule COCCNc1ncnc2c1[nH]c1ccccc12 has a solubility kinetic of 36.2 µg/mL (≈ 149 µM).
